Reference: US9975906B2, “Tricyclic heterocycle derivatives having HIV replication inhibitory effect” (Shionogi & Co., Ltd., priority 2014, dated 2018)

Tests used:
Format in all cases: in vitro ADME
CYP3A4 = molecular target: T1, CYP3A4 (Homo sapiens, UniProt P08684); assay: CYP Inhibition Assay (terfenadine hydroxylation); conditions: pooled human hepatic microsome, 1 μmol/L terfenedine, 15 minutes, 37° C.
T1 construct: enzyme, pooled human hepatic microsome 0.2 mg protein/mL; from tissue
Procedure: (§1) Using commercially available pooled human hepatic microsome, and employing, as markers, 7-ethoxyresorufin O-deethylation (CYP1A2), tolbutamide methyl-hydroxylation (CYP2C9), mephenytoin 4'-hydroxylation (CYP2C19), dextromethorphan O-demethylation (CYP2D6), and terfenadine hydroxylation (CYP3A4) as typical substrate metabolism reactions of human main five CYP enzyme forms (CYP1A2, 2C9, 2C19, 2D6, 3A4) an inhibitory degree of each metabolite production amount by a test compound was assessed. […] After the centrifugation at 3000 rpm for 15 minutes, resorufin (CYP1A2 metabolite) in the supernatant was quantified by a fluorescent multilabel counter and tolbutamide hydroxide (CYP2C9 metabolite), mephenytoin 4' hydroxide (CYP2C19 metabolite), dextrorphan (CYP2D6 metabolite), and terfenadine alcohol (CYP3A4 metabolite) were quantified by LC/MS/MS. A reaction system containing only DMSO which is a solvent for dissolving a drug was adopted as a control (100%), and the remaining activity (%) was calculated, then IC50 was calculated by reverse presumption with a logistic model using a concentration and an inhibition rate.

CYP2D6 = molecular target: T2, CYP2D6 (Homo sapiens, UniProt P10635); assay: CYP Inhibition Assay (dextromethorphan O-demethylation); conditions: pooled human hepatic microsome, 5 μmol/L dextromethorphan, 15 minutes, 37° C.
T2 construct: enzyme, pooled human hepatic microsome 0.2 mg protein/mL; from tissue
T2 sequence (P10635 whole entry): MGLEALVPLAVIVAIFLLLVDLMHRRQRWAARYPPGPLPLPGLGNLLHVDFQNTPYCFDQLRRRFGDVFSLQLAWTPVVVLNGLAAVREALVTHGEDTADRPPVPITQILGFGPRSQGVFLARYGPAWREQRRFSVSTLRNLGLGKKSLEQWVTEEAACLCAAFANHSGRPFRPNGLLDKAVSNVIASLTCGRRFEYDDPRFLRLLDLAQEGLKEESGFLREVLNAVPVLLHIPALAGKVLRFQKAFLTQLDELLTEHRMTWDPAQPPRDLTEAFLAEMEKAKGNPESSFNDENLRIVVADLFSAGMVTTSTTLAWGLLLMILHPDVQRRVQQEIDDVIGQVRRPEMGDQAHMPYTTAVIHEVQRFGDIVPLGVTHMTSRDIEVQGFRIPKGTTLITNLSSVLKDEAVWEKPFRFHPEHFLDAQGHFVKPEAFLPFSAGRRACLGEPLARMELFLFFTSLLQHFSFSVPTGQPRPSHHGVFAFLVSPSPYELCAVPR
Procedure: as §1

CYP1A2 = molecular target: T3, CYP1A2 (Homo sapiens, UniProt P05177); assay: CYP Inhibition Assay (7-ethoxyresorufin O-deethylation); conditions: pooled human hepatic microsome, 0.5 μmol/L ethoxyresorufin, 15 minutes, 37° C.
T3 construct: enzyme, pooled human hepatic microsome 0.2 mg protein/mL; from tissue
T3 sequence (P05177 1-516): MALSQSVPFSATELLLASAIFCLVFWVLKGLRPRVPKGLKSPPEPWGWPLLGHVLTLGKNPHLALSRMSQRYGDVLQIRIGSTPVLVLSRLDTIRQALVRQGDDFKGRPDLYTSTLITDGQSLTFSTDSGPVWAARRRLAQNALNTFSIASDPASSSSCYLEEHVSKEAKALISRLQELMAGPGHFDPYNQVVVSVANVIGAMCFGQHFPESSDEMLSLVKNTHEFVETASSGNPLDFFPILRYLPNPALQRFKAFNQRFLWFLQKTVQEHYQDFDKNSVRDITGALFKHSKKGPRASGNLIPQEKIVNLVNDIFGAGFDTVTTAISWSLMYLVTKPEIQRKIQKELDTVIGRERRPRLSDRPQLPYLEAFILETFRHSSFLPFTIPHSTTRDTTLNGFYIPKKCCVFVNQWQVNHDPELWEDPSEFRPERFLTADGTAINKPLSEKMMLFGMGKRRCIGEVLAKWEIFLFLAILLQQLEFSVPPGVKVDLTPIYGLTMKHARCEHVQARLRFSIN
Procedure: as §1

[1] = Metabolism Stability Test; conditions: compound concentration 0.5 μmol/L, human liver microsomes, NADPH, 37° C., 30 minutes
Procedure: Commercially available pooled human hepatic microsomes and a test compound were reacted for a constant time, then a remaining rate was calculated by comparing a reacted sample and an unreacted sample, thereby a degree of metabolism of the test compound in liver was assessed. A reaction was performed (oxidative reaction) at 37° C. for 0 minute or 30 minutes in the presence of 1 mmol/L NADPH in 0.2 mL of a buffer (50 mmol/L Tris-HCl, pH 7.4, 150 mmol/L potassium chloride, 10 mmol/L magnesium chloride) containing 0.5 mg protein/mL of human liver microsomes. After the reaction, 50 μL of the reaction solution was added to 100 μL of a methanol/acetonitrile=1/1 (v/v), mixed and centrifuged at 3000 rpm for 15 minutes. The test compound in the supernatant was quantified by LC/MS/MS, and a remaining amount of the test compound after the reaction wad calculated, letting a compound amount at 0 minute reaction time to be 100%. Hydrolysis reaction was performed in the absence of NADPH and glucuronidation reaction was in the presence of 5 mM UDP-glucuronic acid in place of NADPH, followed by similar operations. (Result) The residual rate of the compound concentration 0.5 μmol/L in the oxidation reaction was shown below.

CYP2C9 = molecular target: T4, CYP2C9 (Homo sapiens, UniProt P11712); assay: CYP Inhibition Assay (tolbutamide methyl-hydroxylation); conditions: pooled human hepatic microsome, 100 μmol/L tolbutamide, 15 minutes, 37° C.
T4 construct: enzyme, pooled human hepatic microsome 0.2 mg protein/mL; from tissue
T4 sequence (P11712 whole entry): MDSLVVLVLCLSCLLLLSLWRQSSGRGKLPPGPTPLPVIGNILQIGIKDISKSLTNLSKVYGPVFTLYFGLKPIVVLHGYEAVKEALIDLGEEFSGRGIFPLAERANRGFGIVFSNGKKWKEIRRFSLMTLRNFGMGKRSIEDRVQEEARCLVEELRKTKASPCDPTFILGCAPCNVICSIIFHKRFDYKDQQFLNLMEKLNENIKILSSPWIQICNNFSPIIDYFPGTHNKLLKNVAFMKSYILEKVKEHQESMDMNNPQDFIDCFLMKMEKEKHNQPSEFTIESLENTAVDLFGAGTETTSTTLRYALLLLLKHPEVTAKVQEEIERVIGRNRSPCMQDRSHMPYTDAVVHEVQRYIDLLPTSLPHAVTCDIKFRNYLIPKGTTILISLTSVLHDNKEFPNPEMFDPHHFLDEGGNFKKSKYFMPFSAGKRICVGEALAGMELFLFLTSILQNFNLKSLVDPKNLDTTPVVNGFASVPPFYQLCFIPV
Procedure: as §1

T1 sequence (P08684 whole entry): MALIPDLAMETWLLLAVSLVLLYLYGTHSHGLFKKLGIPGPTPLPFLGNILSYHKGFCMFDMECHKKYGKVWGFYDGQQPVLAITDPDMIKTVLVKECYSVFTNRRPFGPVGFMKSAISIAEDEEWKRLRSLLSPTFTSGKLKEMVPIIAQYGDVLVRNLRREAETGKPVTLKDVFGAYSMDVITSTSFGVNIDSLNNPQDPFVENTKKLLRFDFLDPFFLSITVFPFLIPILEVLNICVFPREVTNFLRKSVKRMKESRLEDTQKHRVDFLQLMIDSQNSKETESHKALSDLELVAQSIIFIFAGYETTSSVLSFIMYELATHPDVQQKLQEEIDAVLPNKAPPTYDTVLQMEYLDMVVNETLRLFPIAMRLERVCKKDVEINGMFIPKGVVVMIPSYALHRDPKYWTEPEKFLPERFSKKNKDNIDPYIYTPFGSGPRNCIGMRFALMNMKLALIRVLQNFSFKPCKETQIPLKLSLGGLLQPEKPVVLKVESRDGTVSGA

IC50 (CYP3A4): > 20 µM | IC50 (CYP2D6): > 20 µM | IC50 (CYP1A2): > 20 µM | residual rate in the oxidation reaction [1]: > 99.9% | IC50 (CYP2C9): > 20 µM
Compound: Cc1ccc(-c2c([C@H](OC(C)(C)C)C(=O)O)c(C)c3c4c2cc(-c2ccnc(-c5ccc6c(cnn6C)c5)c2)n4CCN3CCN(C)C)cc1 [Compound I-034]
